Assay results taken from patent EP4566596A1, “ANTI-HBV AGENT” (RIKEN, priority 2022, dated 2024).
Several values for one entry are separate records, joined by “and”; a condition that tells them apart may be missing. Equal values may be shown once. Read-outs that look alike come from different tables or passages of the source.

Key:
HBV DNA from Hep2.2.15.7 = assay: Anti-HBV activity using hepatitis B virus-producing cultured cells (HBV DNA in culture medium, qPCR); type: cell-based; settings: 144 h, Hep2.2.15.7 cells, HBV DNA in culture medium after 6 days
Protocol: Hep2.2.15.7 cells were spread in a 96-well plate (manufactured by TPP) at a density of 1 × 10^5 cells/well and cultured at 37°C and 5% CO2 using a culture medium containing DMEM/F12-GlutaMAX (manufactured by Thermo Fisher Scientific Inc.), 10% fetal bovine serum, 100 U/ml penicillin, 100 µg/ml streptomycin (manufactured by Thermo Fisher Scientific Inc.), and 5 µg/ml insulin (manufactured by Wako Pure Chemical). A test compound was added to the culture, and cells in three wells per condition were cultured. After 3 days, replacement with a medium containing the test compound was performed. After 6 days, cell viability was determined by quantitatively measuring intracellular mitochondrial activity. This was performed by measuring absorbance at 490 nm using Cell Proliferation Kit II (XTT) (manufactured by Roche) and a plate reader, EnSight (manufactured by PerkinElmer). At the same time, HBV-derived DNA was extracted and purified from the cell culture medium using Agencourt Genfind v2 (manufactured by Beckman-Coulter). […].

pgRNA in PXB cells = assay: Anti-HBV activity using hepatitis B virus-infected primary cultured human hepatocytes (pgRNA, qPCR); type: cell-based; settings: 7 days treatment; for IC50: Hepatitis B virus, Hepatocyte, compound added after 28 days; for effect of suppressing pgRNA: FIG. 3
[1] = Mouse blood drug concentrations after oral administration (LC-MS/MS); type: in vivo, mice (ICR strain); settings: ICR mice, plasma; for half-life: mouse, read-out: Elimination half-life
Protocol: A compound was dissolved in a mixture of ethanol and polysorbate 80 (1:1) to make 10 mg/mL, and the resulting mixture was diluted with saline to 1 mg/mL and orally administered to mice (ICR strain, males, 6-10 weeks old) using a sonde. Blood was collected from the tail vein at 0.25, 0.5, 1, 2, 4, and 7 hours after administration, and plasma was obtained. An internal standard (ritonavir) was added to 10 µL of plasma, and a deproteinized sample was used for measurement. The measurement was performed according to a liquid chromatography-tandem mass spectrometry method using a Shimadzu LCMS-8050 system. The analytical conditions were as follows. A COSMOSIL 3C18-MS-II (2.0 ID × 50 mm; manufactured by Nacalai Tesque, Inc.) column was used. The column temperature was 40°C, and the autosampler temperature was 4°C. The mobile phase was a combination of Phase A: water/acetonitrile = 9/1 (v/v) and Phase B: acetonitrile, and the flow rate was 0.6 mL/min. 2 µL of the sample was injected. The gradient elution conditions were 0 to 0.9 min, 5% B; 0.9 to 2.1 min, 5 to 95% B; 2.1 to 5.5 min, 95% B; 5.5 to 5.51 min, 95 to 5% B; and 5.51 to 6.0 min, 5% B. The cleaning solution used was an isopropanol/methanol/acetonitrile/water = 1/1/1/1 (v/v/v/v, %) solution containing 0.1% formic acid. The ionization method was ESI, and the collected data was processed using LabSolutions software (Ver. 5.97 SP1, Shimadzu Corporation).

[2] = type: in vitro ADME, human
Protocol: (§1) Then, 50 µL of a NADPH regeneration system (85 mM D-glucose-6-phosphate, 10 mM β-nicotinamide adenine dinucleotide phosphate, oxidized form, and 10 U/mL glucose-6-phosphate dehydrogenase, all manufactured by Oriental Yeast Co., Ltd.) was added and mixed, and incubation was started. The incubation starting point was set to 0 minutes of reaction. At 0, 30, and 60 minutes of reaction, a 50-µL fraction of the reaction solution was collected into 200 µL of an ice-cooled 0.5 µM propranolol/acetonitrile solution, and the reaction was stopped. The obtained preparative solution was transferred to a protein removal plate (manufactured by Phenomenex), and after suction filtration through a manifold for 96-well plates, the filtrate was collected into a 96-well plate for collection. 100 µL of the collected filtrate was transferred to a 96-well plate and dried in a nitrogen-blowing high-speed parallel concentrator (Turbo Vap 96, manufactured by Biotage). After dissolving the dried sample with the initial mobile phase, the target compound was quantified by liquid chromatography-tandem mass spectrometry (LC-MS/MS). […] As technical replicates, the residual rate was calculated in two independent series for each compound to be evaluated for each animal species.
(§2) The configuration of LC-MS/MS is as follows: high-performance liquid chromatography: Nexera X2 UPLC system (manufactured by Shimadzu), column: ACQUITY UPLC BEH C18 Column, 130A, 1.7 µm, 2.1 ×× 50 mm (manufactured by Waters), guard column: ACQUITY UPLC BEH C18 VanGuard Column, 130A, 1.7 µm, 2.1 ×× 50 mm (manufactured by Waters), mobile phase A: 0.1% aqueous formic acid solution/acetonitrile (9:1, v/v), mobile phase B: 0.1% aqueous formic acid solution/acetonitrile (1:9, v/v), gradient conditions: 0 to 1 min; 30% B, 1 to 1.5 min; 30 to 100% B, 1.5 to 3.5 min; 100% B, and 3.5 to 5 min; 30% B, and mass spectrometer: QTRAP 4500 (manufactured by AB Sciex) were used, a measurement target compound was ionized using an ESI method, and target ions were measured by multiple reaction monitoring. […]

[3] = type: in vitro ADME, rat
Protocol: as §1, §2

[4] = type: in vitro ADME, mouse
Protocol: as §1, §2

cccDNA = assay: Effect of suppressing cccDNA in HBV-infected PXB cells (qPCR); type: cell-based, HBV genotype C; settings: 7 days treatment, FIG. 3
Protocol: Fresh human hepatocytes derived from PXB mice (PXB cells; manufactured by PhoenixBio Co., Ltd.) were spread in a collagen-coated 96-well plate (manufactured by FALCON) at a density of 0.7 × 10^5 cells/well, and cultured for 7 days using a dHCGM medium (manufactured in house) at 37°C and 5% CO2. HBV genotype C (manufactured by PhoenixBio Co., Ltd.) was added to the culture medium together with 4% PEG 8000 at a final density of 3.5 × 10^5 copies/well, and the medium was replaced after 1 day, and every third or fourth day thereafter. A test compound was added after 28 days, and cells in three wells per condition were cultured. Then, replacement with a medium containing the test compound was also performed after 3 or 4 days, and after 7 days, DNA was extracted and purified from the cells using Agencourt DNAdvance (manufactured by Beckman-Coulter). […]

HBV genotype C = assay: Anti-HBV activity in hepatitis B virus-infected human hepatocyte chimeric mice (serum HBV DNA); type: in vivo, Human hepatocyte-transplanted chimeric mice (PXB mice); settings: 10 mg/kg orally twice daily for 21 days, FIG. 4
HBc T33N = HBc T33N (Hepatitis B virus genotype D subtype ayw, UniProt P03146, T33N); assay: HBV replication assay in HeLa cells, HBc T33N mutant; type: cell-based
HBc T33N, sequence (P03146 whole entry T33N, looked up): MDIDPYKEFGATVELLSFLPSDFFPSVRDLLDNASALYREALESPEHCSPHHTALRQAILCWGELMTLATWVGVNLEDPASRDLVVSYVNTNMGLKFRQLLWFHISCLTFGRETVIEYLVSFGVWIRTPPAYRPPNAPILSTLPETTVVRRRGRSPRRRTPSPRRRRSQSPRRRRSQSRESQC

HBc (1-149) = assay: Capsid formation mechanism: gel filtration and electron microscopy of recombinant HBc (1-149); type: biochemical, HBV genotype C
Protocol: An expression plasmid in which the ubiquitin-like protein SUMO serving as a tag was fused to the sequence of the association domain (1-149) of HBc of genotype C was prepared and introduced into the Escherichia coli KRX strain, and a recombinant protein was expressed and purified. After the recombinant HBc (1-149) was cleaved with a SUMO protease to remove the tag, the dimer peak was separated by gel filtration and used for subsequent analyses. […]
This behavior is similar to that of the compound CBT-078. […] A fraction was collected from the elution peak at the position corresponding to the capsid, and a negatively stained image was captured using an electron microscope.

HBV = assay: Effect of suppressing HBsAg, HBeAg and pgRNA in primary cultured human hepatocytes infected with HBV; type: cell-based; settings: concentrations of 0.01 to 100 mM, FIG. 2
Protocol: Primary cultured human hepatocytes infected with HBV were treated with the compound CBT-289 or Entecavir (ETV) at concentrations of […], and the HBsAg and HBeAg levels in the medium and the pgRNAlevel in the cells were measured.

CCC[C@@H](C)NC(=O)c1ccc(NC(=O)c2cccc(C(=O)Nc3ccc(F)cc3)c2F)c(C)c1 [CBT-391]
IC50 (HBV DNA from Hep2.2.15.7): 95 nM
IC50 (pgRNA in PXB cells): 2.48 µM

Cc1ccccc1NC(=O)c1cccc(C(=O)Nc2ccc(F)cc2)c1F [CBT-078, reference compound]
IC50 (HBV DNA from Hep2.2.15.7): 270 nM
effect of suppressing pgRNA (pgRNA in PXB cells): did not have the effect of suppressing pgRNA
Maximum blood concentration [1]: 710 ng/mL
Time to reach maximum blood concentration [1]: 30 min
half-life ([1]; in vivo): 32 min
residual rate ([2]; Human liver microsomes, 0 min (baseline)): 100%
residual rate ([2]; Human liver microsomes, 30 min): 77%
residual rate ([2]; Human liver microsomes, 60 min): 60% and 58%
residual rate ([3]; Rat liver microsomes, 0 min (baseline)): 100%
residual rate ([3]; Rat liver microsomes, 30 min): 53% and 52%
residual rate ([3]; Rat liver microsomes, 60 min): 35% and 34%
residual rate ([4]; Mouse liver microsomes, 0 min (baseline)): 100%
residual rate ([4]; Mouse liver microsomes, 30 min): 6%
residual rate ([4]; Mouse liver microsomes, 60 min): 0%
effect of suppressing cccDNA (cccDNA): did not have the effect of suppressing pgRNA or cccDNA

CCNC(=O)c1ccc(NC(=O)c2cccc(C(=O)Nc3ccc(F)cc3)c2F)c(C)c1 [CBT-384]
IC50 (HBV DNA from Hep2.2.15.7): 75 nM
IC50 (pgRNA in PXB cells): 16.5 µM

Cc1cc(C#N)ccc1NC(=O)c1cccc(C(=O)Nc2ccc(F)cc2)c1F [CBT-209]
IC50 (HBV DNA from Hep2.2.15.7): 39 nM
Maximum blood concentration [1]: 250 ng/mL
Time to reach maximum blood concentration [1]: 120 min
half-life ([1]; male): 825 min
residual rate ([2]; human, 0 min, 1 µM, pH 7.4): 100%
residual rate ([3]; rat, 0 min, 1 µM, pH 7.4): 100%
residual rate ([4]; mouse, 0 min, 1 µM, pH 7.4): 100%
HBV DNA level in the serum (HBV genotype C): preferentially reduced compared with GLS4 or the vehicle
antiviral activity against viruses with the HBc T33N mutation (HBc T33N): have antiviral activity even against viruses with the HBc T33N mutation
association state of HBc (1-149) by gel filtration (HBc (1-149); 11 µM HBc (1-149), 15 µM compound, overnight incubation at 4°C, FIG. 5): the elution peak shifted to the position corresponding to the capsid
stability of the capsids formed (HBc (1-149); 7 days of incubation, gel filtration and electron microscope): stable even after 7 days of incubation

Cc1cc(C(=O)NCCC(C)C)ccc1NC(=O)c1cccc(C(=O)Nc2ccc(F)cc2)c1F [CBT-390]
IC50 (HBV DNA from Hep2.2.15.7): 61 nM
IC50 (pgRNA in PXB cells): 0.73 µM

Cc1cc(C(=O)NC(C)(C)C)ccc1NC(=O)c1cccc(C(=O)Nc2ccc(F)cc2)c1F [CBT-385]
IC50 (HBV DNA from Hep2.2.15.7): 180 nM
IC50 (pgRNA in PXB cells): > 100 µM

CCCNC(=O)c1ccc(NC(=O)c2cccc(C(=O)Nc3ccc(F)cc3)c2F)c(C)c1 [CBT-383]
IC50 (HBV DNA from Hep2.2.15.7): 910 nM
IC50 (pgRNA in PXB cells): 2.33 µM

CCCCNC(=O)c1ccc(NC(=O)c2cccc(C(=O)Nc3ccc(F)cc3)c2F)c(C)c1 [CBT-289]
IC50 (HBV DNA from Hep2.2.15.7): 74 nM
effect of suppressing pgRNA (pgRNA in PXB cells): suppressed cccDNA and pgRNA in a concentration-dependent manner
IC50 (pgRNA in PXB cells): 2.48 µM
HBeAg level in the medium (HBV): suppressed HBsAg, HBeAg, and pgRNAin a concentration-dependent manner
HBsAg level in the medium (HBV): suppressed HBsAg, HBeAg, and pgRNAin a concentration-dependent manner
pgRNA level in the cells (HBV): suppressed HBsAg, HBeAg, and pgRNAin a concentration-dependent manner
effect of suppressing cccDNA (cccDNA): suppressed cccDNA and pgRNA in a concentration-dependent manner

C=CCCNC(=O)c1ccc(NC(=O)c2cccc(C(=O)Nc3ccc(F)cc3)c2F)c(C)c1 [CBT-387]
IC50 (HBV DNA from Hep2.2.15.7): 41 nM
IC50 (pgRNA in PXB cells): 3.41 µM

CCCCCCCCCCNC(=O)c1ccc(NC(=O)c2cccc(C(=O)Nc3ccc(F)cc3)c2F)c(C)c1 [CBT-389]
IC50 (HBV DNA from Hep2.2.15.7): 470 nM
IC50 (pgRNA in PXB cells): 100 µM

CCCCCCNC(=O)c1ccc(NC(=O)c2cccc(C(=O)Nc3ccc(F)cc3)c2F)c(C)c1 [CBT-388]
IC50 (HBV DNA from Hep2.2.15.7): 180 nM
IC50 (pgRNA in PXB cells): 4.59 µM

C=C1[C@H](CO)[C@@H](O)C[C@@H]1n1cnc2c(=O)[nH]c(N)nc21 [ETV, Entecavir, reference compound]
HBeAg level in the medium (HBV): did not suppress them
HBsAg level in the medium (HBV): did not suppress them
pgRNA level in the cells (HBV): did not suppress them
